Results from EP4714449A1, “USE OF HETEROCYCLIC COMPOUND FOR TREATING DISEASES RELATED TO RET GENETIC CHANGE AND METHOD THEREFOR” (Sichuan Kelun-Biotech Biopharmaceutical Co., Ltd., priority 2023, dated 2024).
Where “and” joins values, the source holds several entries; their conditions need not be identical. Equal entries are not always repeated. Structures can show the parent of a compound that is named as a salt.

Experiments:
[1] = tested on: Ba/F3 KIF5B-RET^G810C; experiment: Proliferation of RET mutant cells (Cell Titer Glo); type: cell-based; details: for IC50: Mus musculus, BaF3, 72 h, 3 days, read-out: Inhibition IC50 (nM) of the compounds on the proliferation of the cell
Procedure: (§1) Experimental method: Ba/F3 cells (Ba/F3 KIF5B-RET^G810R, Ba/F3 KIF5B-RET^G810S, Ba/F3 KIFSB-RET^G810C) in logarithmic phase were respectively collected and inoculated into 96-well plates, with 2000 cells/95 µl/well. […] In addition, negative control wells (without the test compound) and blank control wells (without cells) were set.
(§2) Inhibition rate % = [1 - (average signal value of compound group - average signal value of blank control) / (average signal value of negative control - average signal value of blank control)] * 100%; the inhibition rate % was fitted using the four-parameter equation "log(agonist) vs response-variable slope (four parameters)" in GraphPad Prism 6.0, and the IC50 was obtained by calculation.

[2] = tested on: Ba/F3 KIF5B-RET^G810R; experiment: Proliferation of RET mutant cells (Cell Titer Glo); type: cell-based; details: for IC50: Mus musculus, BaF3, 72 h, 3 days, read-out: Inhibition IC50 (nM) of the compounds on the proliferation of the cell
Procedure: as §1, §2

[3] = tested on: Ba/F3 KIF5B-RET^G810S; experiment: Proliferation of RET mutant cells (Cell Titer Glo); type: cell-based; details: for IC50: Mus musculus, BaF3, 72 h, 3 days, read-out: Inhibition IC50 (nM) of the compounds on the proliferation of the cell
Procedure: as §1, §2

[4] = tested on: Ba/F3 KIF5B-RET^V804E; experiment: Proliferation of RET mutant cells (Cell Titer Glo); type: cell-based; details: for IC50: Mus musculus, BaF3, 72 h, 3 days, read-out: Inhibition IC50 (nM) of the compounds on the proliferation of the cell
Procedure: (§3) Ba/F3 cells (Ba/F3 KIF5B-RET^V804E, Ba/F3 KIF5B-RET^V804L, Ba/F3 KIF5B-RET^V804M) in logarithmic phase were respectively collected and inoculated into 96-well plates, with 1000 cells/95 µl/well. […] In addition, negative control wells (without the test compound) and blank control wells (without cells) were set.
as §2

[5] = tested on: Ba/F3 KIF5B-RET^V804L; experiment: Proliferation of RET mutant cells (Cell Titer Glo); type: cell-based; details: for IC50: Mus musculus, BaF3, 72 h, Ba/F3 KIFSB-RET^V804L, 3 days, read-out: Inhibition IC50 (nM) of the compounds on the proliferation of the cell
Procedure: as §3, §2

[6] = tested on: Ba/F3 KIF5B-RET^V804M; experiment: Proliferation of RET mutant cells (Cell Titer Glo); type: cell-based; details: for IC50: Mus musculus, BaF3, 72 h, 3 days, read-out: Inhibition IC50 (nM) of the compounds on the proliferation of the cell
Procedure: as §3, §2

[7] = molecular target: RET-G810R (Homo sapiens, UniProt P07949, G810R); experiment: RET inhibition experiment, HTRF KinEASE-TK kit, mutant RET-G810R enzyme; type: biochemical
[8] = molecular target: RET-G810S (Homo sapiens, UniProt P07949, G810S); experiment: RET inhibition experiment, HTRF KinEASE-TK kit, mutant RET-G810S enzyme; type: biochemical
[9] = molecular target: RET-G810C (Homo sapiens, UniProt P07949, G810C); experiment: RET inhibition experiment, HTRF KinEASE-TK kit, mutant RET-G810C enzyme; type: biochemical
[10] = Safety evaluation in patients with RET-altered tumors; type: in vivo, human; details: 109 patients with RET-altered tumors, once daily, 10-120 mg
Procedure: A total of 109 patients with RET-altered tumors were recruited, and compound 1-A of the present disclosure was administered once daily at six dosage levels of 10 mg, 20 mg, 40 mg, 60 mg, 90 mg, and 120 mg.

[11] = tested on: NSCLC, MTC, Pancreatic Cancer, and Ovarian Cancer; experiment: Treatment of patients with NSCLC, MTC, pancreatic cancer and ovarian cancer; type: in vivo, human; details: 90 patients (70 NSCLC, 18 MTC, 1 pancreatic cancer, 1 ovarian cancer), once daily 40-120 mg
Procedure: (§4) A total of 90 patients were recruited, including 70 patients with non-small cell lung cancer (NSCLC), 18 patients with medullary thyroid carcinoma (MTC), 1 patient with pancreatic cancer, and 1 patient with ovarian cancer. Compound 1-A of the present disclosure was administered once daily at dosage levels of 40-120 mg (40 mg, 60 mg, 90 mg, and 120 mg), resulting in an objective response rate (ORR) of 60% and a disease control rate (DCR) of 94% for the 90 patients.

[12] = tested on: non-small cell lung cancer (NSCLC); experiment: Treatment of NSCLC patients (subgroups of the clinical study); type: in vivo, human; parameters: disease control rate (DCR) / overall central nervous system disease control rate (CNS DCR): concentration or dose not given beside the values
Procedure: as §4
Among the 70 NSCLC patients, there were 26 who had not been systemically pretreated, 33 who had previously been systemically pretreated (excluding first-generation selective RET inhibitors), and 11 who had been previously treated with at least first-generation selective RET inhibitor therapy.

[13] = Table 7, comparison with BLU-667 and LOXO-292
[14] = 8 NSCLC patients pretreated with first-generation selective RET inhibitors, dosed at 90 mg or 120 mg
[15] = 26 NSCLC patients not systemically pretreated
[16] = 33 NSCLC patients systemically pretreated (excluding first-generation selective RET inhibitors)

Chain of RET-G810S (P07949 29-1114 G810S): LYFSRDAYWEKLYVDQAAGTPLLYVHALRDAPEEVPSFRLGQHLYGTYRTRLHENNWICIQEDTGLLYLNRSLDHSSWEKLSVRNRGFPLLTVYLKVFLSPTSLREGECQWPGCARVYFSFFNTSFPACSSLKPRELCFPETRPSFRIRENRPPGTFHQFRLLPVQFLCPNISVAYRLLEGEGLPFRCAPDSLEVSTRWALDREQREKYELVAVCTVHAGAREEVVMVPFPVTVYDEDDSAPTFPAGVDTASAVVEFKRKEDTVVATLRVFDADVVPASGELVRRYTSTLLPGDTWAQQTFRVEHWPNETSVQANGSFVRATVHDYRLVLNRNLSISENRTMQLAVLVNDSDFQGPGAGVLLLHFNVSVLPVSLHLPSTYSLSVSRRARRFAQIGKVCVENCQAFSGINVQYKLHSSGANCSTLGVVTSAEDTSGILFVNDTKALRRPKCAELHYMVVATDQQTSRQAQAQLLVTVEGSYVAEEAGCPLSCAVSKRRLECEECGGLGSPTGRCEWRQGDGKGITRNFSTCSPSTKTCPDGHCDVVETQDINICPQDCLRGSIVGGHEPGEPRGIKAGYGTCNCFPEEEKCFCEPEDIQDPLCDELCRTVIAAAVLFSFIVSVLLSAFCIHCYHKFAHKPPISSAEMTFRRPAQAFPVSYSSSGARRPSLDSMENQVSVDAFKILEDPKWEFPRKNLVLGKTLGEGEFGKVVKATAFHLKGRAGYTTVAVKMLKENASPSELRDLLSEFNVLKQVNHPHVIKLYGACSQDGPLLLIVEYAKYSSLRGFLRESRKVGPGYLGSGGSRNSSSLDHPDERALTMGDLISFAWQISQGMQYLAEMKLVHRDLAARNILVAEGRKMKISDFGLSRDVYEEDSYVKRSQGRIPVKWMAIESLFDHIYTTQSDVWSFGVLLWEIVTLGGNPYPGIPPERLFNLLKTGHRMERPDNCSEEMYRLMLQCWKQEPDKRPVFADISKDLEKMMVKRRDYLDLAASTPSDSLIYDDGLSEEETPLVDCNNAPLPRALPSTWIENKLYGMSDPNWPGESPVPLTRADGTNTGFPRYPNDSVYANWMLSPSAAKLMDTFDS
Chain of RET-G810R (P07949 29-1114 G810R): as the sequence (P07949 29-1114 G810S) above, with S782R counted along it
Chain of RET-G810C (P07949 29-1114 G810C): as the sequence (P07949 29-1114 G810S) above, with S782C counted along it

CO[C@]1(C(=O)N[C@@H](C)c2ccc(-n3cc(F)cn3)nc2)CC[C@H](c2nc(C)cc(Nc3cc(C)[nH]n3)n2)CC1 [BLU-667, reference compound]
IC50 [1]: 146 ± 3.4 nM
IC50 [2]: 182 ± 80 nM
IC50 [3]: 29 ± 4.47 nM
IC50 [4]: 76.2 ± 9.74 nM
IC50 [5]: 87.1 ± 11.3 nM
IC50 [6]: 39.5 ± 16.7 nM

Cc1cc(Nc2cc(C)[nH]n2)nc(-c2ccc(N3CC4CC(C3)N4Cc3ccc(-n4cc(F)cn4)nc3)nc2)n1 [Compound 1-A, Fumarate of 2-(6-(6-((6-(4-fluoro-1H-pyrazol-1-yl)pyridin-3-yl)methyl)-3,6-diazabicyclo[3.1.1]heptan-3-yl)pyridin-3-yl)-6-methyl-N-(5-methyl-1H-pyrazol-3-yl)pyrimidin-4-amine]
IC50 [7, 13]: 19.6 ± 0.67 nM
inhibition on RET-G810R enzyme (in words) ([7]; summary of Tables 1, 2, 7): remarkably inhibited
IC50 [8, 13]: 2.69 ± 0.56 nM
inhibition on RET-G810S enzyme (in words) ([8]; summary of Tables 3, 4, 7): remarkably inhibited
IC50 [9, 13]: 53.2 ± 10.7 nM
inhibition on RET-G810C enzyme (in words) ([9]; summary of Tables 5, 6, 7): remarkably inhibited
inhibiting the proliferation, comparison in words [1]: superior to BLU-667 and Loxo-292
IC50 [1]: 65.3 ± 1 nM
inhibiting the proliferation, comparison in words [2]: superior to BLU-667 and Loxo-292
IC50 [2]: 26.3 ± 5.76 nM
inhibiting the proliferation, comparison in words [3]: superior to BLU-667 and Loxo-292
IC50 [3]: 20.2 ± 0.35 nM
inhibiting the proliferation, comparison in words [4]: superior to BLU-667 and Loxo-292
IC50 [4]: 59.8 ± 8.33 nM
inhibiting the proliferation, comparison in words ([5]; Ba/F3 KIF5B-RET^V804L): superior to BLU-667 and Loxo-292
IC50 [5]: 66.6 ± 20.7 nM
inhibiting the proliferation, comparison in words [6]: superior to BLU-667 and Loxo-292
IC50 [6]: 25.5 ± 1.91 nM
dose-limiting toxicities (DLT) [10]: No dose-limiting toxicities (DLT) were observed
maximum tolerated dose (MTD) [10]: nor was the maximum tolerated dose (MTD) reached
treatment-related adverse events (TRAE) of grade 1-2 and reversible [10]: 76.1%
disease control rate (DCR) [11]: 94%
objective response rate (ORR) [11]: 60%
partial response (PR), number of patients [12, 14]: 3 patients
stable disease (SD), number of patients [12, 14]: 4 patients
tumor shrinkage observed, share of patients ([12]; 8 NSCLC patients pretreated with first-generation selective RET inhibitors, dosed at 90 mg or 120 mg, 7 patients): 88%
complete response (CR), number of patients [12, 15]: 1
disease control rate (DCR) [12, 15]: 96%
partial responses (PR), number of patients [12, 15]: 20
objective response rate (ORR) ([12]; 26 NSCLC patients not systemically pretreated (21/26)): 81%
ERC1-RET fusion-positive patient achieving complete response (CR), number of patients [12, 16]: 1
disease control rate (DCR) [12, 16]: 97%
objective response rate (ORR) ([12]; 33 NSCLC patients systemically pretreated (excluding first-generation selective RET inhibitors) (23/33)): 70%
response of the NCOA4-RET fusion-positive and RELCH-RET fusion-positive patients ([12]; NSCLC patients not systemically pretreated, 1 patient each): partial responses (PR)
overall central nervous system disease control rate (CNS DCR) ([12]; NSCLC patients with brain metastasis): 100%
reductions of measurable brain lesions after treatment ([12]; six NSCLC patients with brain metastasis and measurable brain lesions, one value per patient): 100% (3×) and 69% and 47% and 17%

COc1ccc(CN2C3CC2CN(c2ccc(-c4cc(OCC(C)(C)O)cn5ncc(C#N)c45)cn2)C3)cn1 [LOXO-292, reference compound]
IC50 [1]: 477 ± 4.4 nM
IC50 [2]: 116.3 ± 1.15 nM
IC50 [3]: 87.83 ± 0.75 nM
IC50 [4]: 460 ± 32.9 nM
IC50 [5]: 1330 ± 666 nM
IC50 [6]: 503 ± 190 nM
